Reference: the supplement of paper PMC10627819

Assays:
Assay in all cases: fitness (endpoint OD595 vs no drug) (fraction); higher = more growth
[1] = tested on: B. subtilis 168
Method in brief: (§1)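 Fitness was measured as bacterial growth in 384-well plates inoculated at OD595 0.01 (30 µl, or 55 µl for S. pneumoniae). Media were TSB, LB Lennox or CY, at 37 °C. OD595 was read every 30 min for 14 h and background-subtracted against the first reading. Fitness is OD595 at the transition into stationary phase divided by the robust mean of no-drug control wells, capped at 1.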

[2] = tested on: S. aureus DSM 20231
Method in brief: as §1

[3] = tested on: S. pneumoniae D39V
Method in brief: as §1

[4] = tested on: S. aureus Newman
Method in brief: as §1
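Also: OD595 on entry to stationary phase over no-drug wells; at most 1.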

CN(C)[C@@H]1C(O)=C(C(N)=O)C(=O)[C@@]2(O)C(O)=C3C(=O)c4c(O)ccc(Cl)c4[C@@](C)(O)[C@H]3C[C@@H]12 [Chlortetracycline] + CN(N=O)C(=O)N[C@@H](C=O)[C@@H](O)[C@H](O)[C@H](O)CO [Streptozotocin]
fitness
Conditions	partner 0.15 µg/mL	partner 0.3 µg/mL	partner 0.6 µg/mL	partner 1.2 µg/mL	partner 2.4 µg/mL	partner 4.8 µg/mL
[1], first compound 0.0475 µg/mL	0.901	0.934	0.956	–	–	–
[1], first compound 0.095 µg/mL	0.786	0.762	0.784	–	–	–
[1], first compound 0.19 µg/mL	0.533	0.547	0.556	–	–	–
[2], first compound 0.012 µg/mL	0.503	0.532	0.507	–	–	–
[2], first compound 0.024 µg/mL	0.227	0.232	0.189	–	–	–
[2], first compound 0.048 µg/mL	0.0717	0.13	0.059	–	–	–
[3], first compound 0.375 µg/mL	–	–	–	0.0355	0.0337	0.0486
[3], first compound 0.75 µg/mL	–	–	–	0.0646	0.0497	0.0485
[3], first compound 1.5 µg/mL	–	–	–	0.0765	0.0322	0.0617

fitness, one replicate
Conditions	partner 0.15 µg/mL	partner 0.3 µg/mL	partner 0.6 µg/mL	partner 1.2 µg/mL	partner 2.4 µg/mL	partner 4.8 µg/mL
[2], first compound 0.006 µg/mL	0.699	0.621	0.622	–	–	–
[3], first compound 0.012 µg/mL	–	–	–	0.889	0.893	0.796
[3], first compound 0.024 µg/mL	–	–	–	0.858	0.798	0.659
[3], first compound 0.048 µg/mL	–	–	–	0.737	0.8	0.577

COc1cccc2c1C(=O)c1c(O)c3c(c(O)c1C2=O)C[C@@](O)(C(=O)CO)C[C@@H]3O[C@H]1C[C@H](N)[C@H](O)[C@H](C)O1 [Doxorubicin] + CO/N=C(\C(=O)N[C@@H]1C(=O)N2C(C(=O)[O-])=C(C[N+]3(C)CCCC3)CS[C@H]12)c1csc(N)n1 [Cefepime]
fitness
Conditions	first compound 0.25 µg/mL	first compound 0.5 µg/mL	first compound 0.625 µg/mL	first compound 1 µg/mL	first compound 1.25 µg/mL	first compound 2.5 µg/mL
[2], partner 0.125 µg/mL	–	–	0.861	–	0.828	0.721
[2], partner 0.25 µg/mL	–	–	0.826	–	0.814	0.656
[2], partner 0.5 µg/mL	–	–	0.741	–	0.71	0.62
[3], partner 0.007 µg/mL	0.937	0.949	–	0.957	–	–
[3], partner 0.0078 µg/mL	≥ 1	≥ 1	–	0.938	–	–
[3], partner 0.014 µg/mL	0.912	0.935	–	0.942	–	–
[3], partner 0.0155 µg/mL	0.974	0.994	–	0.917	–	–
[3], partner 0.028 µg/mL	0.783	0.846	–	0.825	–	–
[4], partner 0.125 µg/mL	–	–	0.783	–	0.773	0.716
[4], partner 0.25 µg/mL	–	–	0.762	–	0.744	0.696
[4], partner 0.5 µg/mL	–	–	0.659	–	0.732	0.683
